Data taken from patent publication US8709406B2, “Prevention and treatment of oxidative stress disorders by gluthathione and phase II detoxification enzymes” (Brassica Foundation for ChemoProtection Research, priority 2001, dated 2014).

How the values were obtained:
HaCaT cells = experiment: tert-Butyl hydroperoxide cytotoxicity (MTT, median effect analysis) and protection by sulforaphane; format: cell-based, human; conditions: tert-butyl hydroperoxide 8 h
Experimental: (§1) Mouse L1210 leukemia cells, a gift from Dr. Joseph G. Cory, East Carolina State University, Greenville, N.C., were grown in RPMI 1640 medium supplemented with 10% horse serum. All cultures were incubated in a humidified atmosphere of 5% CO2 at 37° C. Media and sera were obtained from Life Technologies (Rockville, Md.).
(§2) All experiments were performed in 96-well microliter plates. ARPE-19 and HaCaT cells were seeded at 10,000 cells per well and grown for 24 h before addition of sulforaphane, whereas L1210 cells (5,000 cells/well) were not incubated before sulforaphane treatment. Solutions of sulforaphane (5 mM) in dimethyl sulfoxide were diluted with the cognate culture medium to provide final inducer concentrations of 0.16-5.0 μM. The final DMSO concentrations were 0.1% by volume.
(§3) Cell viability was determined by spectroscopic measurement of the reduction of MTT (Carmichael, J., DeGraff, W. G., Gazdar, A. F., Minna, J. D. & Mitchell, J. B. (1987) Cancer Res. 47, 936-942). The culture media were discarded after the designated incubation periods, the cells were washed three times with PBS by use of a microtiter plate washer (Ultrawash Plus, Dynex Technologies, Chantilly, Va.). Each well then received 150 μl of an MTT solution (0.5 mg/ml) in serum-free medium. The plates were incubated for 2 h at 37° C., the MTT solution was discarded, 100 μl of DMSO were added to each well, and the plates were shaken at 200 rpm on an orbital shaker for 5 min. The absorbances of the wells were determined at 555 nm with a microtiter plate reader (Spectra Max Plus, Molecular Devices, Sunnyvale, Calif.). The absorbance of reduced MIT was then compared at each inducer and oxidant concentration to that of untreated control cells that received only the vehicle in which sulforaphane (DMSO) and menadione (DMSO or PBS) were dissolved. In each experiment three identical 96-well plates were used and the means of the absorbance values, the standard deviations of these means, and their coefficients of variation were calculated.
(§4) Dose-effect analyses were performed according to the Median Effect Equation, by use of a computer program (Chou, T. C. & Hayball, M. (1996) CalcuSyn for Windows 3.1 and 95: multiple dose effect analyzer and manual for IBM-PC, Biosoft, Cambridge, U.K). The equation: fa/fu=[D/Dm]^m, where fa is the fraction of cells affected by the oxidant, fu is the fraction unaffected (i.e., 1-fa), D is the dose of oxidant required to produce the effect fa, Dm is the concentration of oxidant required to produce a 50% effect, i.e., when fa=fu, and the slope m is a measure of the sigmoidicity of the dose-response curve, and is therefore a measure of cooperativity. The results are analyzed by plotting log(fa/fu) with respect to log D of the oxidant. The computer program provides the slope (m) of the curves, and the goodness of fit (r^2) to linearity.

L1210 cells = experiment: Menadione cytotoxicity (MTT, median effect analysis) and protection by sulforaphane; format: cell-based, mouse; conditions: menadione 2 h
Experimental: as §1, §2, §3, §4

[1] = test system: Retina Pigment Epithelium Cell; experiment: Photooxidative damage by all-trans-retinal and 365 nm light, protection by sulforaphane (cell survival); format: cell-based, human
Experimental: There is accumulating evidence that chronic exposure to sunlight plays a role in some degenerative diseases, for instance, age-related macular degeneration (AMD). We have, therefore, carried out an experiment of protection of human RPE cells against photooxidative damage mediated by all-trans-retinal, which exists in human retina and is a critical component of the visual cycle.
as §3
To examine the protective effect of sulforaphane against photooxidative damage mediated by all-trans-retinal and light exposure, the cells were treated with 0-100 μM of all-trans-retinal for 2 hours and light exposure at 365 nm for 20 min after incubation with 0-5 μM of sulforaphane for 24 hours.

[2] = after sulforaphane 0.63 μM 24 h
[3] = after sulforaphane 1.25 μM 24 h
[4] = after sulforaphane 2.50 μM 24 h
[5] = after sulforaphane 0.16 μM 24 h
[6] = after sulforaphane 0.31 μM 24 h

`C[S+]([O-])CCCCN=C=S` (stereo not drawn) [Sulforaphane] was tested, and the “Dm (median effect concentration) of tert-butyl hydroperoxide” value (“Dm … of tert-butyl hydroperoxide” for short) (HaCaT cells; [2]) was 113 µM, the “m (slope of median effect plot) for tert-butyl hydroperoxide” value (HaCaT cells; [2]) was 0.894 and the “Dm … of tert-butyl hydroperoxide” value (HaCaT cells; [3]) was 166 µM. The “m (slope of median effect plot) for tert-butyl hydroperoxide” value (HaCaT cells; [3]) was 0.921, the “Dm … of tert-butyl hydroperoxide” value (HaCaT cells; [4]) was 200 µM and the “m (slope of median effect plot) for tert-butyl hydroperoxide” value (HaCaT cells; [4]) was 0.768. For the same molecule, the “Dm (median effect concentration) of menadione” value (“Dm … of menadione” for short) (L1210 cells; [5]) was 19.6 µM, the “m (slope of median effect plot) for menadione” value (L1210 cells; [5]) was 0.864 and the “Dm … of menadione” value (L1210 cells; [6]) was 26.5 µM. The “m (slope of median effect plot) for menadione” value (L1210 cells; [6]) was 1.00, the “Dm … of menadione” value (L1210 cells; [2]) was 36.2 µM and the “m (slope of median effect plot) for menadione” value (L1210 cells; [2]) was 1.17. It also gave a Survival ([1]; 365 nm light, all-trans-retinal 0 μM, sulforaphane 1.25 μM 24 h) of 100.0%, a Survival ([1]; 365 nm light, all-trans-retinal 0 μM, sulforaphane 2.50 μM 24 h) of 100.6% and a Survival ([1]; 365 nm light, all-trans-retinal 0 μM, sulforaphane 5.00 μM 24 h) of 100.4%. It also gave a Survival ([1]; 365 nm light, all-trans-retinal 12.5 μM, sulforaphane 1.25 μM 24 h) of 95.4%, a Survival ([1]; 365 nm light, all-trans-retinal 12.5 μM, sulforaphane 2.50 μM 24 h) of 96.5% and a Survival ([1]; 365 nm light, all-trans-retinal 12.5 μM, sulforaphane 5.00 μM 24 h) of 103.4%. It also gave a Survival ([1]; 365 nm light, all-trans-retinal 25 μM, sulforaphane 1.25 μM 24 h) of 54.4%, a Survival ([1]; 365 nm light, all-trans-retinal 25 μM, sulforaphane 2.50 μM 24 h) of 63.8% and a Survival ([1]; 365 nm light, all-trans-retinal 25 μM, sulforaphane 5.00 μM 24 h) of 72.2%. The Survival ([1]; 365 nm light, all-trans-retinal 50 μM, sulforaphane 1.25 μM 24 h) was 11.7%, the Survival ([1]; 365 nm light, all-trans-retinal 50 μM, sulforaphane 2.50 μM 24 h) was 15.2% and the Survival ([1]; 365 nm light, all-trans-retinal 50 μM, sulforaphane 5.00 μM 24 h) was 27.4%. For the same molecule, the Survival ([1]; 365 nm light, all-trans-retinal 100 μM, sulforaphane 1.25 μM 24 h) was 3.4%, the Survival ([1]; 365 nm light, all-trans-retinal 100 μM, sulforaphane 2.50 μM 24 h) was 5.2% and the Survival ([1]; 365 nm light, all-trans-retinal 100 μM, sulforaphane 5.00 μM 24 h) was 8.2%. The Survival ([1]; 365 nm light, column Control, sulforaphane 1.25 μM 24 h) was 100.7%, the Survival ([1]; 365 nm light, column Control, sulforaphane 2.50 μM 24 h) was 97.4% and the Survival ([1]; 365 nm light, column Control, sulforaphane 5.00 μM 24 h) was 101.4%. The Survival ([1]; in dark, all-trans-retinal 0 μM, sulforaphane 1.25 μM 24 h) was 96.6%, the Survival ([1]; in dark, all-trans-retinal 0 μM, sulforaphane 2.50 μM 24 h) was 99.4% and the Survival ([1]; in dark, all-trans-retinal 0 μM, sulforaphane 5.00 μM 24 h) was 103.1%. The Survival ([1]; in dark, all-trans-retinal 12.5 μM, sulforaphane 1.25 μM 24 h) was 96.3%, the Survival ([1]; in dark, all-trans-retinal 12.5 μM, sulforaphane 2.50 μM 24 h) was 101.5% and the Survival ([1]; in dark, all-trans-retinal 12.5 μM, sulforaphane 5.00 μM 24 h) was 104.6%. For the same molecule, the Survival ([1]; in dark, all-trans-retinal 25 μM, sulforaphane 1.25 μM 24 h) was 97.7%, the Survival ([1]; in dark, all-trans-retinal 25 μM, sulforaphane 2.50 μM 24 h) was 98.3% and the Survival ([1]; in dark, all-trans-retinal 25 μM, sulforaphane 5.00 μM 24 h) was 104.8%. For the same molecule, the Survival ([1]; in dark, all-trans-retinal 50 μM, sulforaphane 1.25 μM 24 h) was 98.4%, the Survival ([1]; in dark, all-trans-retinal 50 μM, sulforaphane 2.50 μM 24 h) was 99.9% and the Survival ([1]; in dark, all-trans-retinal 50 μM, sulforaphane 5.00 μM 24 h) was 106.8%. The Survival ([1]; in dark, all-trans-retinal 100 μM, sulforaphane 1.25 μM 24 h) was 74.7%, the Survival ([1]; in dark, all-trans-retinal 100 μM, sulforaphane 2.50 μM 24 h) was 75.6% and the Survival ([1]; in dark, all-trans-retinal 100 μM, sulforaphane 5.00 μM 24 h) was 84.6%. The Survival ([1]; in dark, column Control, sulforaphane 1.25 μM 24 h) was 96.7%, the Survival ([1]; in dark, column Control, sulforaphane 2.50 μM 24 h) was 99.5% and the Survival ([1]; in dark, column Control, sulforaphane 5.00 μM 24 h) was 105.6%.
